Patent US10294202B2, “Pyrrolidinones as herbicides” (FMC Corporation, priority 2013, dated 2019)
Read-outs that look alike come from different tables or passages of the source.

Assays:
[1] = system: oat, wild; assay: Test C pre-/postemergence herbicide test; assay type: in vivo, Avena fatua; settings: Postemergence
In short: (§1)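 Pre-emergence: seeds sown in loam/sand blend and treated with compound in surfactant-containing solvent. Post-emergence: plants at 2–18 cm (1- to 4-leaf stage) in peat-based medium sprayed with the same formulation. Visual rating versus controls after 13–15 days in greenhouse, scale 0 (no effect) to 100 (complete control).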

[2] = system: soybean; assay: Test C pre-/postemergence herbicide test; assay type: in vivo, Glycine max
In short: as §1

[3] = system: pigweed; assay: Test A pre-/postemergence herbicide test; assay type: in vivo, Amaranthus retroflexus
In short: (§2)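 Seeds in loam–sand blend received preemergence directed soil spray; separately, plants 2–10 cm at one- to two-leaf stage received postemergence spray, both with test chemicals in non-phytotoxic solvent with surfactant. After ~10 days in greenhouse, injury rated visually against untreated controls, 0 (no effect) to 100 (complete control).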

[4] = system: wheat (winter wheat); assay: Test C pre-/postemergence herbicide test; assay type: in vivo, Triticum aestivum
In short: as §1

[5] = system: giant foxtail; assay: Test A pre-/postemergence herbicide test; assay type: in vivo, Setaria faberii
In short: as §2

[6] = system: waterhemp; assay: Test C pre-/postemergence herbicide test; assay type: in vivo, Amaranthus rudis
In short: as §1

[7] = system: nutsedge, yellow; assay: Test C pre-/postemergence herbicide test; assay type: in vivo, Cyperus esculentus
In short: as §1

[8] = system: wheat; assay: Test A pre-/postemergence herbicide test; assay type: in vivo, Triticum aestivum
In short: as §2

[9] = system: ragweed; assay: Test C pre-/postemergence herbicide test; assay type: in vivo, Ambrosia elatior
In short: as §1

[10] = system: oilseed rape; assay: Test C pre-/postemergence herbicide test; assay type: in vivo, Brassica napus
In short: as §1

[11] = system: ducksalad; assay: Test B flooded paddy test; assay type: in vivo, Heteranthera limosa; settings: Flood, scale of 0 to 100 where 0 is no effect and 100 is complete control
In short: (§3)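 Scored visually 0–100 (0 no effect, 100 complete control) versus controls after 13 to 15 greenhouse days. Treatment: compound added to paddy water kept 3 cm above soil, on 2-leaf-stage plants.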

[12] = system: sedge, umbrella; assay: Test B flooded paddy test; assay type: in vivo, Cyperus difformis; settings: Flood, scale of 0 to 100 where 0 is no effect and 100 is complete control
In short: as §3

[13] = 125 g ai/ha, scale 0 to 100 (0 no effect, 100 complete control)
[14] = 250 g ai/ha, scale 0 to 100 (0 no effect, 100 complete control)
[15] = Postemergence, 31 g ai/ha, scale 0 (no effect) to 100 (complete control)
[16] = Postemergence, 62 g ai/ha, scale 0 to 100 (0 no effect, 100 complete control)
[17] = Postemergence, 125 g ai/ha, scale 0 to 100 (0 no effect, 100 complete control)
[18] = Postemergence, 250 g ai/ha, scale 0 to 100 (0 no effect, 100 complete control)
[19] = Preemergence, 31 g ai/ha, scale 0 to 100, 0 is no effect and 100 is complete control
[20] = Preemergence, 62 g ai/ha, scale 0 to 100
[21] = Preemergence, 125 g ai/ha, scale 0 to 100 (0 no effect, 100 complete control)
[22] = Preemergence, 125 g ai/ha, visual rating on 0 to 100 scale (0 no effect, 100 complete control)
[23] = Postemergence, 31 g ai/ha, scale 0 to 100 (0 no effect, 100 complete control)
[24] = Postemergence, 62 g ai/ha, scale 0 (no effect) to 100 (complete control)
[25] = Preemergence, 62 g ai/ha, scale 0 to 100 (0 no effect, 100 complete control)
[26] = Preemergence, 125 g ai/ha, scale 0 to 100
[27] = Postemergence, 125 g ai/ha, visual rating on 0 to 100 scale (0 no effect, 100 complete control), approx. 10 days
[28] = Postemergence, 500 g ai/ha, 0 to 100 scale (0 no effect, 100 complete control)
[29] = Preemergence, 125 g ai/ha, 0 to 100 scale where 0 is no effect and 100 is complete control
[30] = Preemergence, 500 g ai/ha, visual rating on 0 to 100 scale (0 no effect, 100 complete control)

## O=C1NCC(c2ccc(C(F)(F)F)cc2)C1C(=O)Nc1ccccc1F (stereo not shown) [Compound 79, N-(2-fluorophenyl)-2-oxo-4-[4-(trifluoromethyl)phenyl]-3-pyrrolidinecarboxamide]
[1]; 31 g ai/ha, scale 0 (no effect) to 100 (complete control)
  Plant response rating, Oat, Wild: 0
[1]; 62 g ai/ha, scale 0 to 100 (0 no effect, 100 complete control)
  Plant response rating, Oat, Wild: 0
[1]; [13]
  Plant response rating, Oat, Wild: 0
[1]; [14]
  Plant response rating, Oat, Wild: 0
[2]; [15]
  Plant response rating, Soybean: 0
[2]; [16]
  Plant response rating, Soybean: 0
[2]; [17]
  Plant response rating, Soybean: 10
[2]; [18]
  Plant response rating, Soybean: 10
[2]; [19]
  Soybean plant response rating: 0
[2]; [20]
  Plant response rating, Soybean: 0
[2]; [21]
  Plant response rating, Soybean: 0
[2]; Preemergence, 250 g ai/ha
  Plant response rating (scale of 0 to 100), Soybean: 0
[3]; Amaranthus retroflexus, post-emergence, 240 h, Postemergence, 125 g ai/ha, 0 to 100 scale, 0 no effect, 100 complete control, read-out: Plant response rating, Pigweed
  pest or weed control at 125 g/ha: 70%
[3]; Amaranthus retroflexus, post-emergence, 240 h, Postemergence, 500 g ai/ha, 0 to 100 scale (0 no effect, 100 complete control), read-out: Plant response rating, Pigweed
  pest or weed control at 500 g/ha: 70%
[3]; Amaranthus retroflexus, pre-emergence, 240 h, preemergence, 500 g ai/ha, 0 to 100 scale, read-out: Plant response rating, Pigweed
  pest or weed control at 500 g/ha: 80%
[3]; [22]
  Pigweed plant response rating: 80
[4]; [15]
  Plant response rating, Wheat: 0
[4]; [16]
  Plant response rating, Wheat: 0
[4]; [17]
  Plant response rating, Wheat: 0
[4]; [18]
  Plant response rating, Wheat: 0
[4]; [19]
  Wheat plant response rating: 10
[4]; [20]
  Plant response rating, Wheat: 40
[4]; [21]
  Plant response rating, Wheat: 60
[4]; Preemergence, 250 g ai/ha
  Plant response rating (scale of 0 to 100), Wheat: 75
[5]; [22]
  Foxtail, Giant plant response rating: 90
[5]; Setaria faberi, post-emergence, 240 h, Postemergence, 125 g ai/ha, 0 to 100 scale, 0 no effect, 100 complete control, read-out: Plant response rating, Foxtail, Giant
  pest or weed control at 125 g/ha: 80%
[5]; Setaria faberi, post-emergence, 240 h, Postemergence, 500 g ai/ha, 0 to 100 scale (0 no effect, 100 complete control), read-out: Plant response rating, Foxtail, Giant
  pest or weed control at 500 g/ha: 80%
[5]; Setaria faberi, pre-emergence, 240 h, preemergence, 500 g ai/ha, 0 to 100 scale, read-out: Plant response rating, Foxtail, Giant
  pest or weed control at 500 g/ha: 90%
[6]; [15]
  Plant response rating, Waterhemp: 10
[6]; [16]
  Plant response rating, Waterhemp: 10
[6]; [17]
  Plant response rating, Waterhemp: 10
[6]; [18]
  Plant response rating, Waterhemp: 30
[6]; [19]
  Waterhemp plant response rating: 25
[6]; [20]
  Plant response rating, Waterhemp: 40
[6]; [21]
  Plant response rating, Waterhemp: 80
[6]; Preemergence, 250 g ai/ha
  Plant response rating (scale of 0 to 100), Waterhemp: 85
[7]; [15]
  Plant response rating, Nutsedge, Yellow: 0
[7]; [16]
  Plant response rating, Nutsedge, Yellow: 0
[7]; [17]
  Plant response rating, Nutsedge, Yellow: 0
[7]; [18]
  Plant response rating, Nutsedge, Yellow: 0
[7]; [19]
  Nutsedge, Yellow plant response rating: 0
[7]; [20]
  Plant response rating, Nutsedge, Yellow: 0
[7]; [21]
  Plant response rating, Nutsedge, Yellow: 0
[7]; Preemergence, 250 g ai/ha
  Plant response rating (scale of 0 to 100), Nutsedge, Yellow: 0
[8]; [22]
  Wheat plant response rating: 0
[8]; Triticum aestivum, post-emergence, 240 h, Postemergence, 125 g ai/ha, 0 to 100 scale, 0 no effect, 100 complete control, read-out: Plant response rating, Wheat
  plant injury at 125 g/ha: 30%
[8]; Triticum aestivum, post-emergence, 240 h, Postemergence, 500 g ai/ha, 0 to 100 scale (0 no effect, 100 complete control), read-out: Plant response rating, Wheat
  plant injury at 500 g/ha: 50%
[8]; Triticum aestivum, pre-emergence, 240 h, preemergence, 500 g ai/ha, 0 to 100 scale, read-out: Plant response rating, Wheat
  plant injury at 500 g/ha: 20%
[9]; [15]
  Plant response rating, Ragweed: 20
[9]; [16]
  Plant response rating, Ragweed: 20
[9]; [17]
  Plant response rating, Ragweed: 20
[9]; [18]
  Plant response rating, Ragweed: 45
[10]; [15]
  Plant response rating, Oilseed Rape: 0
[10]; [16]
  Plant response rating, Oilseed Rape: 0
[10]; [17]
  Plant response rating, Oilseed Rape: 0
[10]; [18]
  Plant response rating, Oilseed Rape: 0
[10]; [19]
  Oilseed Rape plant response rating: 0
[10]; [20]
  Plant response rating, Oilseed Rape: 5
[10]; [21]
  Plant response rating, Oilseed Rape: 70
[10]; Preemergence, 250 g ai/ha
  Plant response rating (scale of 0 to 100), Oilseed Rape: 80
[11]; 250 g ai/ha
  Plant response rating, Ducksalad: 90
[12]; 250 g ai/ha
  Plant response rating, Sedge, Umbrella: 0

## O=C1NCC(c2cccc(OC(F)F)c2)C1C(=O)Nc1ccccc1F (stereo not shown) [Compound 323]
[1]; 31 g ai/ha, scale 0 to 100 (0 no effect, 100 complete control)
  Plant response rating, Oat, Wild: 0
[1]; 62 g ai/ha, scale 0 (no effect) to 100 (complete control)
  Plant response rating, Oat, Wild: 0
[1]; [13]
  Plant response rating, Oat, Wild: 0
[1]; [14]
  Plant response rating, Oat, Wild: 0
[2]; [23]
  Plant response rating, Soybean: 0
[2]; [24]
  Plant response rating, Soybean: 0
[2]; [17]
  Plant response rating, Soybean: 0
[2]; [18]
  Plant response rating, Soybean: 0
[2]; [25]
  Soybean plant response rating: 0
[2]; [26]
  Plant response rating, Soybean: 0
[3]; [27]
  Plant response rating, Pigweed: 20
[3]; [28]
  Plant response rating, Pigweed: 30
[3]; [29]
  Plant response rating, Pigweed: 20
[3]; [30]
  Pigweed plant response rating: 30
[4]; [23]
  Plant response rating, Wheat: 0
[4]; [24]
  Plant response rating, Wheat: 0
[4]; [17]
  Plant response rating, Wheat: 0
[4]; [18]
  Plant response rating, Wheat: 0
[4]; [25]
  Wheat plant response rating: 30
[4]; [26]
  Plant response rating, Wheat: 40
[5]; [27]
  Plant response rating, Foxtail, Giant: 90
[5]; [28]
  Plant response rating, Foxtail, Giant: 90
[5]; [29]
  Plant response rating, Foxtail, Giant: 90
[5]; [30]
  Foxtail, Giant plant response rating: 90
[6]; [23]
  Plant response rating, Waterhemp: 0
[6]; [24]
  Plant response rating, Waterhemp: 0
[6]; [17]
  Plant response rating, Waterhemp: 0
[6]; [18]
  Plant response rating, Waterhemp: 20
[6]; [25]
  Waterhemp plant response rating: 50
[6]; [26]
  Plant response rating, Waterhemp: 60
[7]; [23]
  Plant response rating, Nutsedge, Yellow: 0
[7]; [24]
  Plant response rating, Nutsedge, Yellow: 0
[7]; [17]
  Plant response rating, Nutsedge, Yellow: 0
[7]; [18]
  Plant response rating, Nutsedge, Yellow: 0
[7]; [19]
  Nutsedge, Yellow plant response rating: 20
[7]; [25]
  Nutsedge, Yellow plant response rating: 25
[7]; [26]
  Plant response rating, Nutsedge, Yellow: 25
[7]; Preemergence, 250 g ai/ha
  Plant response rating (scale of 0 to 100), Nutsedge, Yellow: 75
[8]; [27]
  Plant response rating, Wheat: 40
[8]; [28]
  Plant response rating, Wheat: 80
[9]; [23]
  Plant response rating, Ragweed: 0
[9]; [24]
  Plant response rating, Ragweed: 0
[9]; [17]
  Plant response rating, Ragweed: 15
[9]; [18]
  Plant response rating, Ragweed: 20
[9]; [25]
  Ragweed plant response rating: 10
[9]; [26]
  Plant response rating, Ragweed: 40
[10]; [23]
  Plant response rating, Oilseed Rape: 0
[10]; [24]
  Plant response rating, Oilseed Rape: 0
[10]; [17]
  Plant response rating, Oilseed Rape: 0
[10]; [18]
  Plant response rating, Oilseed Rape: 0
[10]; [19]
  Oilseed Rape plant response rating: 0
[10]; [25]
  Oilseed Rape plant response rating: 10
[10]; [26]
  Plant response rating, Oilseed Rape: 70
[10]; Preemergence, 250 g ai/ha
  Plant response rating (scale of 0 to 100), Oilseed Rape: 85
[11]; 500 g ai/ha
  Plant response rating, Ducksalad: 100
[12]; 500 g ai/ha
  Plant response rating, Sedge, Umbrella: 0
